# Data reported in ChEMBL document CHEMBL4376820, “Homodimeric Tobramycin Adjuvant Repurposes Novobiocin as an Effective Antibacterial Agent against Gram-Negative Bacteria” (J Med Chem, 2019).
# The source made the active and inactive calls. No cut-off for these calls is given here.
# Columns and labels:
# Pseudomonas aeruginosa [1] = experiment: Synergistic antibacterial activity against wild type Pseudomonas aeruginosa PAO1 assessed as potentiation of cefotaxime-induced antibacterial effect incubated for 18 hrs by checkerboard assay; type: functional, organism-based
# Pseudomonas aeruginosa [2] = experiment: Synergistic antibacterial activity against wild type Pseudomonas aeruginosa PAO1 assessed as potentiation of minocycline-induced antibacterial effect incubated for 18 hrs by checkerboard assay; type: functional, organism-based
# Pseudomonas aeruginosa [3] = experiment: Synergistic antibacterial activity against wild type Pseudomonas aeruginosa PAO1 assessed as potentiation of meropenem-induced antibacterial effect incubated for 18 hrs by checkerboard assay; type: functional, organism-based
# HEK293 = experiment: Cytotoxicity against human HEK293 cells at 50 uM incubated for 48 hrs by PrestoBlue dye based fluorescence assay; type: cell-based; conditions: hek293, 48 h
# HepG2 = experiment: Cytotoxicity against human HepG2 cells at 50 uM incubated for 48 hrs by PrestoBlue dye based fluorescence assay; type: cell-based; conditions: hepg2, 48 h
# Erythrocyte = experiment: Hemolytic activity against porcine erythrocytes assessed as hemoglobin release at 1024 ug/ml incubated for 1 hr by microplate reader analysis; type: ADME, cell-based, Sus scrofa; conditions: pig
# [4] = Toxicity in Galleria mellonella larvae assessed as survivability at 200 mg/kg measured every 6 hrs for 72 hrs; type: organism-based; conditions: in vivo
# Pseudomonas aeruginosa [5] = experiment: Synergistic antibacterial activity against wild type Pseudomonas aeruginosa PAO1 assessed as potentiation of rifampicin-induced antibacterial effect incubated for 18 hrs by checkerboard assay; type: functional, organism-based
# Pseudomonas aeruginosa [6] = experiment: Synergistic antibacterial activity against wild type Pseudomonas aeruginosa PAO1 assessed as potentiation of doxycycline-induced antibacterial effect incubated for 18 hrs by checkerboard assay; type: functional, organism-based
# Pseudomonas aeruginosa [7] = experiment: Synergistic antibacterial activity against wild type Pseudomonas aeruginosa PAO1 assessed as potentiation of linezolid-induced antibacterial effect incubated for 18 hrs by checkerboard assay; type: functional, organism-based
# Pseudomonas aeruginosa [8] = experiment: Synergistic antibacterial activity against wild type Pseudomonas aeruginosa PAO1 assessed as potentiation of moxifloxacin-induced antibacterial effect incubated for 18 hrs by checkerboard assay; type: functional, organism-based
# Pseudomonas aeruginosa [9] = experiment: Synergistic antibacterial activity against wild type Pseudomonas aeruginosa PAO1 assessed as potentiation of ciprofloxacin-induced antibacterial effect incubated for 18 hrs by checkerboard assay; type: functional, organism-based
# Pseudomonas aeruginosa [10] = experiment: Synergistic antibacterial activity against wild type Pseudomonas aeruginosa PAO1 assessed as potentiation of levofloxacin-induced antibacterial effect incubated for 18 hrs by checkerboard assay; type: functional, organism-based
# Pseudomonas aeruginosa [11] = experiment: Synergistic antibacterial activity against wild type Pseudomonas aeruginosa PAO1 assessed as potentiation of aztreonam-induced antibacterial effect incubated for 18 hrs by checkerboard assay; type: functional, organism-based
# Pseudomonas aeruginosa [12] = experiment: Synergistic antibacterial activity against wild type Pseudomonas aeruginosa PAO1 assessed as potentiation of ceftazidime-induced antibacterial effect incubated for 18 hrs by checkerboard assay; type: functional, organism-based
# Pseudomonas aeruginosa [13] = experiment: Synergistic antibacterial activity against wild type Pseudomonas aeruginosa PAO1 assessed as potentiation of fosfomycin-induced antibacterial effect incubated for 18 hrs by checkerboard assay; type: functional, organism-based
# Pseudomonas aeruginosa [14] = experiment: Synergistic antibacterial activity against wild type Pseudomonas aeruginosa PAO1 assessed as potentiation of chloramphenicol-induced antibacterial effect incubated for 18 hrs by checkerboard assay; type: functional, organism-based
# Pseudomonas aeruginosa [15] = experiment: Synergistic antibacterial activity against wild type Pseudomonas aeruginosa PAO1 assessed as potentiation of clindamycin-induced antibacterial effect incubated for 18 hrs by checkerboard assay; type: functional, organism-based
# Pseudomonas aeruginosa [16] = experiment: Synergistic antibacterial activity against wild type Pseudomonas aeruginosa PAO1 assessed as potentiation of piperacillin-induced antibacterial effect incubated for 18 hrs by checkerboard assay; type: functional, organism-based
# Pseudomonas aeruginosa [17] = experiment: Synergistic antibacterial activity against wild type Pseudomonas aeruginosa PAO1 assessed as potentiation of novobiocin-induced antibacterial effect incubated for 18 hrs by checkerboard assay; type: functional, organism-based
# Pseudomonas aeruginosa [18] = experiment: Synergistic antibacterial activity against wild type Pseudomonas aeruginosa PAO1 assessed as potentiation of tobramycin-induced antibacterial effect at <= 7.1 uM incubated for 18 hrs by checkerboard assay; type: functional, organism-based
# Pseudomonas aeruginosa [19] = experiment: Synergistic antibacterial activity against wild type Pseudomonas aeruginosa PAO1 assessed as potentiation of vancomycin-induced antibacterial effect at <=7.1 uM incubated for 18 hrs by checkerboard assay; type: functional, organism-based
# Pseudomonas aeruginosa [20] = experiment: Synergistic antibacterial activity against wild type Pseudomonas aeruginosa PAO1 assessed as potentiation of colistin-induced antibacterial effect at <=7.1 uM incubated for 18 hrs by checkerboard assay; type: functional, organism-based
# Pseudomonas aeruginosa [21] = experiment: Antibacterial activity against wild type Pseudomonas aeruginosa PAO1 assessed as fractional inhibitory concentration index incubated for 18 hrs in presence of tobramycin by checkerboard assay; type: functional
# Pseudomonas aeruginosa [22] = experiment: Antibacterial activity against wild type Pseudomonas aeruginosa PAO1 assessed as fractional inhibitory concentration index incubated for 18 hrs in presence of colistin by checkerboard assay; type: functional
# Pseudomonas aeruginosa [23] = experiment: Synergistic antibacterial activity against wild type Pseudomonas aeruginosa PAO1 assessed as potentiation of rifampicin-induced antibacterial effect incubated for 18 hrs by checkerboard assay relative to rifampicin alone; type: functional
# Pseudomonas aeruginosa [24] = experiment: Synergistic antibacterial activity against wild type Pseudomonas aeruginosa PAO1 assessed as potentiation of minocycline-induced antibacterial effect incubated for 18 hrs by checkerboard assay relative to minocycline alone; type: functional
# Pseudomonas aeruginosa [25] = experiment: Synergistic antibacterial activity against wild type Pseudomonas aeruginosa PAO1 assessed as potentiation of cefotaxime-induced antibacterial effect incubated for 18 hrs by checkerboard assay relative to cefotaxime alone; type: functional
# Pseudomonas aeruginosa [26] = experiment: Synergistic antibacterial activity against wild type Pseudomonas aeruginosa PAO1 assessed as potentiation of doxycycline-induced antibacterial effect incubated for 18 hrs by checkerboard assay relative to doxycycline alone; type: functional
# Pseudomonas aeruginosa [27] = experiment: Synergistic antibacterial activity against wild type Pseudomonas aeruginosa PAO1 assessed as potentiation of linezolid-induced antibacterial effect incubated for 18 hrs by checkerboard assay relative to linezolid alone; type: functional
# Pseudomonas aeruginosa [28] = experiment: Synergistic antibacterial activity against wild type Pseudomonas aeruginosa PAO1 assessed as potentiation of meropenem-induced antibacterial effect incubated for 18 hrs by checkerboard assay relative to meropenem alone; type: functional
# Pseudomonas aeruginosa [29] = experiment: Synergistic antibacterial activity against wild type Pseudomonas aeruginosa PAO1 assessed as potentiation of moxifloxacin-induced antibacterial effect incubated for 18 hrs by checkerboard assay relative to moxifloxacin alone; type: functional
# Pseudomonas aeruginosa [30] = experiment: Synergistic antibacterial activity against wild type Pseudomonas aeruginosa PAO1 assessed as potentiation of ciprofloxacin-induced antibacterial effect incubated for 18 hrs by checkerboard assay relative to ciprofloxacin alone; type: functional
# Pseudomonas aeruginosa [31] = experiment: Synergistic antibacterial activity against wild type Pseudomonas aeruginosa PAO1 assessed as potentiation of levofloxacin-induced antibacterial effect incubated for 18 hrs by checkerboard assay relative to levofloxacin alone; type: functional
# Pseudomonas aeruginosa [32] = experiment: Synergistic antibacterial activity against wild type Pseudomonas aeruginosa PAO1 assessed as potentiation of aztreonam-induced antibacterial effect incubated for 18 hrs by checkerboard assay relative to aztreonam alone; type: functional
# Pseudomonas aeruginosa [33] = experiment: Synergistic antibacterial activity against wild type Pseudomonas aeruginosa PAO1 assessed as potentiation of ceftazidime-induced antibacterial effect incubated for 18 hrs by checkerboard assay relative to ceftazidime alone; type: functional
# Pseudomonas aeruginosa [34] = experiment: Synergistic antibacterial activity against wild type Pseudomonas aeruginosa PAO1 assessed as potentiation of fosfomycin-induced antibacterial effect incubated for 18 hrs by checkerboard assay relative to fosfomycin alone; type: functional
# Pseudomonas aeruginosa [35] = experiment: Synergistic antibacterial activity against wild type Pseudomonas aeruginosa PAO1 assessed as potentiation of chloramphenicol-induced antibacterial effect incubated for 18 hrs by checkerboard assay relative to chloramphenicol alone; type: functional
# Pseudomonas aeruginosa [36] = experiment: Synergistic antibacterial activity against wild type Pseudomonas aeruginosa PAO1 assessed as potentiation of clindamycin-induced antibacterial effect incubated for 18 hrs by checkerboard assay relative to clindamycin alone; type: functional
# Pseudomonas aeruginosa [37] = experiment: Synergistic antibacterial activity against wild type Pseudomonas aeruginosa PAO1 assessed as potentiation of novobiocin-induced antibacterial effect incubated for 18 hrs by checkerboard assay relative to novobiocin alone; type: functional
# Pseudomonas aeruginosa [38] = experiment: Synergistic antibacterial activity against wild type Pseudomonas aeruginosa PAO1 assessed as potentiation of piperacillin-induced antibacterial effect incubated for 18 hrs by checkerboard assay relative to piperacillin alone; type: functional
structure (smiles),measurement,setting,value
NC[C@H]1O[C@H](O[C@H]2[C@H](OCCCCCCn3cc(CCCCO[C@@H]4[C@@H](O[C@H]5O[C@H](CO)[C@@H](O)[C@H](N)[C@H]5O)[C@H](N)C[C@H](N)[C@H]4O[C@H]4O[C@H](CN)[C@@H](O)C[C@H]4N)nn3)[C@@H](O[C@H]3O[C@H](CO)[C@@H](O)[C@H](N)[C@H]3O)[C@H](N)C[C@@H]2N)[C@H](N)C[C@@H]1O.O=C(O)C(F)(F)F.O=C(O)C(F)(F)F.O=C(O)C(F)(F)F.O=C(O)C(F)(F)F.O=C(O)C(F)(F)F.O=C(O)C(F)(F)F.O=C(O)C(F)(F)F.O=C(O)C(F)(F)F.O=C(O)C(F)(F)F.O=C(O)C(F)(F)F,Activity,Pseudomonas aeruginosa [1],Dose-dependent effect
same,Activity,Pseudomonas aeruginosa [2],Dose-dependent effect
same,Activity,Pseudomonas aeruginosa [3],Dose-dependent effect
same,Activity,HEK293,Non-Toxic
same,Activity,HepG2,Non-Toxic
same,Activity,Erythrocyte,Non-Toxic
same,Activity,[4],Non-Toxic
same,Activity,Pseudomonas aeruginosa [5],Dose-dependent effect
same,Activity,Pseudomonas aeruginosa [6],Dose-dependent effect
same,Activity,Pseudomonas aeruginosa [7],Dose-dependent effect
same,Activity,Pseudomonas aeruginosa [8],Dose-dependent effect
same,Activity,Pseudomonas aeruginosa [9],Dose-dependent effect
same,Activity,Pseudomonas aeruginosa [10],Dose-dependent effect
same,Activity,Pseudomonas aeruginosa [11],Dose-dependent effect
same,Activity,Pseudomonas aeruginosa [12],Dose-dependent effect
same,Activity,Pseudomonas aeruginosa [13],Dose-dependent effect
same,Activity,Pseudomonas aeruginosa [14],Dose-dependent effect
same,Activity,Pseudomonas aeruginosa [15],Dose-dependent effect
same,Activity,Pseudomonas aeruginosa [16],Dose-dependent effect
same,Activity,Pseudomonas aeruginosa [17],Dose-dependent effect
same,Activity,Pseudomonas aeruginosa [18],inactive
same,Activity,Pseudomonas aeruginosa [19],inactive
same,Activity,Pseudomonas aeruginosa [20],inactive
same,fractional inhibitory concentration index (FICI),Pseudomonas aeruginosa [21],>4
same,fractional inhibitory concentration index (FICI),Pseudomonas aeruginosa [22],>4
same,fold change (FC),Pseudomonas aeruginosa [23],4 - 128
same,fold change (FC),Pseudomonas aeruginosa [24],4 - 128
same,fold change (FC),Pseudomonas aeruginosa [25],4 - 128
same,fold change (FC),Pseudomonas aeruginosa [26],4 - 128
same,fold change (FC),Pseudomonas aeruginosa [27],4 - 128
same,fold change (FC),Pseudomonas aeruginosa [28],4 - 128
same,fold change (FC),Pseudomonas aeruginosa [29],4 - 128
same,fold change (FC),Pseudomonas aeruginosa [30],4 - 128
same,fold change (FC),Pseudomonas aeruginosa [31],4 - 128
same,fold change (FC),Pseudomonas aeruginosa [32],4 - 128
same,fold change (FC),Pseudomonas aeruginosa [33],4 - 128
same,fold change (FC),Pseudomonas aeruginosa [34],4 - 128
same,fold change (FC),Pseudomonas aeruginosa [35],4 - 128
same,fold change (FC),Pseudomonas aeruginosa [36],4 - 128
same,fold change (FC),Pseudomonas aeruginosa [37],4 - 128
same,fold change (FC),Pseudomonas aeruginosa [38],4 - 128
